The source of these data is patent US10280198B2, “Therapeutic agents for reducing parathyroid hormone levels” (KAI PHARMACEUTICALS, INC., priority 2009, dated 2019).

In data set [1] the test system is plasma PTH. Put plainly: In vivo PTH lowering after IV bolus in isoflurane-anesthetized normal Sprague Dawley rats. The arrangement: species or system rat. The following applies: for PTH-lowering activity in normal rats: 0.5 mg/kg single IV administration. A digest of the protocol: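 Peptides were given as a 0.5 mg/kg IV bolus to normal Sprague Dawley rats kept under isoflurane throughout, with saline bolus controls.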

The subject of data set [2] is plasma PTH. Put plainly: 1K1C rat model of acute renal insufficiency, plasma PTH after dosing. The format is in vivo. The following applies: 1K1C rats. An excerpt: A rat model of acute renal insufficiency (also referred to as the 1K1C model) was developed to simulate the pathology of SHPT associated with end stage renal disease. […] The development of this model allowed for the further characterization of described compounds in the context of a subject with renal dysfunction and elevated PTH. Typical baseline PTH levels in this model averaged ˜450 pg/mL.
The ensuing ischemia/reperfusion (I/R) damage to the remaining kidney results in significant necrosis and renal failure. Serum creatinine levels were elevated for over 24-48 hours following I/R insult (data not shown). […] By 48 hours post-I/R, plasma PTH levels were elevated to ˜450 pg/mL (˜5 fold increase) and in some instances reach as high as ˜1200 pg/mL. This reproducible increase in serum creatinine and PTH provided a robust model that mimics the physiology seen ESRD patients.
The protocol used in this study is as follows. Male Sprague Dawley rats were purchased from Charles River Laboratories (Hollister, Calif.; requested purchase weight 250-275 g). […] Animals were maintained in a temperature-controlled environment with a constant 12 hours light/12 hours dark cycle and free access to food and water at all times. All experimental procedures with animals were performed according to IACUC guidelines.
General anesthesia was induced and maintained by intraperitoneal (IP) injection of sodium pentobarbital (5.2%, 0.4 mL/rat). For animals that received 45 minutes of renal ischemia an additional IP injection of sodium pentobarbital (5.2%, 0.1 mL/rat) was given to maintain the anesthetic plane. Blood sampling for PTH measurements following administration of compounds in normal rats was done under continuous isoflurane anesthesia.
For model development studies, the left femoral vein was cannulated with a PE-10 tube for blood drawing. Both kidneys were exposed via a laparotomy. A right nephrectomy was performed after the right renal pedicle and ureter were ligated with double 2-0 silk sutures. After confirmation of non-bleeding in the right pedicle, the left renal artery was carefully dissected and clamped with a micro vascular clip to induce left renal global ischemia. Renal ischemia was confirmed by observation of a global white-grey color change (blanching). The abdominal incision was temporarily covered with gauze to help maintain the temperature of the abdominal organs. After 45 minutes, the designated period of ischemia, the clip was removed and left renal artery flow was considered restored upon observation of a global restoration of red color. The abdominal incision was closed in layers with 2-0 silk sutures. The animal was then recovered from anesthesia. Physiological parameters including body temperature (36-37.5° C.) and body weight were measured throughout the procedure. Body temperature was monitored and maintained using a heat pad rectal probe feedback system.
Approximately 48 hours after the 1K1C surgery (I/R injury), animals were dosed with various compounds to measure effects on plasma PTH and calcium. In most cases, test articles were administered by IV infusion (infusion time 5, 10 or 30 minutes) although in some studies compounds were administered by IV bolus or subcutaneous (SC) bolus injection. For drug administration and blood draws, animals were anesthetized with isoflurane.

The test system of data set [3] is plasma histamine. The following applies: rat, in vivo.
Data set [4] deals with plasma PTH. Put plainly: Micropore-facilitated transdermal delivery, plasma PTH in rats. As to conditions: CD hairless rats, derma roller microporation, 10% solution in reservoir, FIG. 11.
[5] abbreviates: 3 mg/kg 30-minute IV infusion, FIG. 1.

“Also recorded” adds a separate entry of the source.

Regarding `CC(=O)N[C@H](CS)C(=O)N[C@H](CCCNC(=N)N)C(=O)N[C@H](CCCNC(=N)N)C(=O)N[C@H](CCCNC(=N)N)C(=O)N[C@H](CCCNC(=N)N)C(=O)N[C@H](CCCNC(=N)N)C(=O)N[C@H](CCCNC(=N)N)C(N)=O` [SEQ ID NO: 6, Ac-crrrrrr-NH2], in data set [1] (0.5 mg/kg IV bolus, normal rats, FIG. 5), the “duration of decreased PTH” value is “at least four hours”. Also, the “PTH-lowering activity in normal rats” value in data set [1] is listed as “below the detection limit or essentially zero”. Further, the “% PTH reduction of baseline at 1 hour post IV admin. of 0.5 mg/kg compound” value in data set [1] (Table 1, isoflurane-anesthetized normal rats, 0.5 mg/kg IV, 1 hour) is 4%. In addition, the “0.5 mg/kg IV bolus % PTH AUC of saline control” value (shortened to “0.5 mg/kg IV bolus % PTH AUC”) in data set [1] (Table 1, normal rats, PTH at 1, 2, 3, 4 h, AUCcmpd treated/AUCsaline control*100) is given as 0%. Also, in data set [1] (Table 3, normal rats, AUC 1-4 h), the “0.5 mg/kg IV bolus % PTH AUC” value was 3%. Also, in data set [2] (1 mg/kg 30-minute IV infusion), the “PTH reduction from baseline 16 hours after dosing” value is recorded as approximately 80% and the “initial fall of PTH levels from baseline” value is 80-90%. For the same compound, the “initial drop of PTH, level as % of baseline” value in data set [2] (1 mg/kg SC bolus) is reported as approximately 40%. Also, in data set [2] (1 mg/kg, SC bolus or 30-minute IV infusion (both routes)), the “duration of reduced plasma PTH levels” value is listed as “over 24 hours”. Further, the “reduced PTH levels from baseline twenty-four hours after dosing” value in data set [2] (1 mg/kg, either route (SC bolus or IV infusion)) is reported as 40-60%. In addition, in data set [2] (setting [5]), the “PTH-lowering efficacy and duration of action” value is on record as “increased efficacy as well as the duration of action”; the “mean PTH reduction at the 24 hour time point” value was approximately 40%. The “fold increase in histamine level relative to pre-dose” value in data set [3] is 7 fold. For the same compound, the “histamine response after IV bolus” value in data set [3] (iv) was “returned to baseline levels 15 minutes later”. The “duration of PTH reduction from baseline” value in data set [4] was approximately 4 h.
As for `CC(=O)N[C@H](CS)C(=O)N[C@H](C)C(=O)N[C@H](CCCNC(=N)N)C(=O)N[C@H](CCCNC(=N)N)C(=O)N[C@H](CCCNC(=N)N)C(=O)N[C@H](C)C(=O)N[C@H](CCCNC(=N)N)C(N)=O` [SEQ ID NO: 26, Ac-carrrar-NH2], the “PTH-lowering activity in normal rats” value in data set [1] is reported as “decreased PTH blood concentration to a non-detectable level for up to 4 hours after dosing; also recorded: very active”. In addition, the “% PTH reduction of baseline at 1 hour post IV administration of 0.5 mg/kg compound” value in data set [1] (Table 2, isoflurane-anesthetized normal rats, 0.5 mg/kg IV, 1 hour) is reported as 0%. For the same compound, the “0.5 mg/kg IV bolus % PTH AUC” value in data set [1] (Table 2, normal rats, AUC 1-4 h) worked out at 1%. The “PTH-lowering activity” value in data set [2] (1 mg/kg 30-minute IV infusion, over 24 hours, FIG. 9) is given as “activity that is equivalent to Ac-crrrrrr-NH2”.
